Legend:
[1] = biological target: T1, FPR2 (Homo sapiens, UniProt P25090); assay: Compound-induced calcium activity on FLIPR Tetra in Gα16 cells stably expressing FPR2; type: cell-based; details: for FPR2 Ga16-HEK293 (Rel. eff.): relative efficacy, value in brackets, table head Ga16-HEK293, text CHO-Gα16 cells; for EC50: table head Ga16-HEK293, text CHO-Gα16 cells stably expressing FPR2, tested 0.61 to 10,000 nM
T1 construct: expressed in transfected cells; host or cells: CHO-Gα16 cells
T1 sequence (P25090 1-351): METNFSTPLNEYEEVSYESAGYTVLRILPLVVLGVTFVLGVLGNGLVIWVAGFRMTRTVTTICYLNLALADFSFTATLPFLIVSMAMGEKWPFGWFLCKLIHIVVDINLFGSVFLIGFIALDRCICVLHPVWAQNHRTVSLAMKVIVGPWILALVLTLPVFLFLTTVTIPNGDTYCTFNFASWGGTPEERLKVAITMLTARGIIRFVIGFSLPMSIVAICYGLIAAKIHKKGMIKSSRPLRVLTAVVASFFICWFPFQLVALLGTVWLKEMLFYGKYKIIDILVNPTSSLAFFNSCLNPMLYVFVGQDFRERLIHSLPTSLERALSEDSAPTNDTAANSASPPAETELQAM
Protocol: (§1) CHO-Gα16 cells stably expressing FPR1 or FPR2 were cultured in (F12, 10% FBS, 1% PSA, 400 μg/ml geneticin and 50 μg/ml hygromycin). In general, the day before the experiment, 18,000 cells/well were plated in a 384-well clear bottom poly-D-lysine coated plate. The following day the screening compound-induced calcium activity was assayed on the FLIPR^Tetra. The drug plates were prepared in 384-well microplates using the EP3 and the MultiPROBE robotic liquid handling systems. Compounds were tested at concentrations ranging from 0.61 to 10,000 nM. Results are expressed as EC50 (nM) and efficacy values.

[2] = biological target: T2, FPR1 (Homo sapiens, UniProt P21462); assay: Compound-induced calcium activity on FLIPR Tetra in Gα16 cells stably expressing FPR1; type: cell-based; details: for FPR1 Ga16-HEK293 (Rel. eff.): relative efficacy, value in brackets, table head Ga16-HEK293, text CHO-Gα16 cells; for EC50: table head Ga16-HEK293, text CHO-Gα16 cells stably expressing FPR1, tested 0.61 to 10,000 nM
T2 construct: expressed in transfected cells; host or cells: CHO-Gα16 cells
T2 sequence (P21462 1-350): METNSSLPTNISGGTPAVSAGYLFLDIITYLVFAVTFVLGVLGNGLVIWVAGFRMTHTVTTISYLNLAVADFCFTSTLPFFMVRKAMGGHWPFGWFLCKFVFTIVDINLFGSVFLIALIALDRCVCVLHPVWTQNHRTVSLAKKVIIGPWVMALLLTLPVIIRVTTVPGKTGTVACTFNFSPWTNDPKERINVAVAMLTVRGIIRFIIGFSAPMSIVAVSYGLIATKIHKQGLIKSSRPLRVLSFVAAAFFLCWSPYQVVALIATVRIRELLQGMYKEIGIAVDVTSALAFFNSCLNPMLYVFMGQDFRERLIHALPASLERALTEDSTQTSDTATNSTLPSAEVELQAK
Protocol: as §1

FPR2 Ga16-HEK293 (Rel. eff.) [1] | EC50 [1] [nM] | FPR1 Ga16-HEK293 (Rel. eff.) [2] | EC50 [2] [nM] | SMILES
0.91 | 224 | 1.00 | 0.58 | CC(C)C[C@H](NC(=O)CNC(=O)Nc1ccc(Br)cc1)C(=O)O [Compound 1, (S)-2-(2-(3-(4-bromophenyl)ureido)acetamido)-4-methylpentanoic acid]
1.07 | 356 | 0.97 | 14.7 | O=C(CNC(=O)Nc1ccc(Br)cc1)N[C@@H](Cc1ccccc1)C(=O)O [Compound 4, (S)-2-(2-(3-(4-bromophenyl)ureido)acetamido)-3-phenylpropanoic acid]
0.81 | 5630 | 0.99 | 76 | CC(C)C[C@H](NC(=O)CCNC(=O)Nc1ccc(Br)cc1)C(=O)O [Compound 5, (S)-2-(3-(3-(4-bromophenyl)ureido)propanamido)-4-methylpentanoic acid]
1.05 | 308 | 0.98 | 4.93 | CCC[C@H](NC(=O)CNC(=O)Nc1ccc(Br)cc1)C(=O)O [Compound 6, (S)-2-(2-(3-(4-bromophenyl)ureido)acetamido)pentanoic acid]

Reference: patent publication US20240025844A1, “PHENYL UREA ANALOGS AS FORMYL PEPTIDE RECEPTOR 1 (FPR1) SELECTIVE AGONISTS” (Allergan, Inc., priority 2018, published 2024)
